Assay results taken from patent US12435057B2, “Triazole carboxylic acids as LPA antagonists” (BRISTOL-MYERS SQUIBB COMPANY, priority 2019, dated 2025).
Counter-ions that a name gives are not always drawn.

Each compound was assayed against T1, human LPA1 (Homo sapiens, UniProt Q92633) (assay: LPA1 functional antagonist assay (calcium flux)). Settings: CHO cells overexpressing human LPA1; inhibition of calcium flux induced by 10 nM LPA; read-out: hLPA1 IC50.
T1 construct: expressed in transfected cells; host or cells: Chinese hamster ovary (CHO) cells
Format: cell-based
Procedure: The effectiveness of compounds of the present invention as LPA1 inhibitors can be determined in an LPA1 functional antagonist assay as follows: • Chinese hamster ovary cells overexpressing human LPA1 were plated overnight (15,000 cells/well) in poly-D-lysine coated 384-well microplates (Greiner bio-one, Cat #781946) in DMEM/F12 medium (Gibco, Cat #11039). Following overnight culture, cells were loaded with calcium indicator dye (AAT Bioquest Inc, Cat #34601) for 30 minutes at 37° C. The cells were then equilibrated to room temperature for 30 minutes before the assay. Test compounds solubilized in DMSO were transferred to 384 well non-binding surface plates (Corning, Cat #3575) using the Labcyte Echo acoustic dispense and diluted with assay buffer [[…] with calcium/magnesium (Gibco Cat #14025-092), 20 mM HEPES (Gibco Cat #15630-080) and 0.1% fatty acid free BSA (Sigma Cat #A9205)] to a final concentration of 0.5% DMSO. Diluted compounds were added to the cells by FDSS6000 (Hamamatsu) at final concentrations ranging from 0.08 nM to 5 μM. and were then incubated for 20 min at room temperature at which time LPA (Avanti Polar Lipids Cat #857130C) was added at final concentrations of 10 nM to stimulate the cells. The compound IC50 value was defined as the concentration of test compound which inhibited 50% of the calcium flux induced by LPA alone. IC50 values were determined by fitting data to a 4-parameter logistic equation (GraphPad Prism, San Diego CA). b. In Vivo Assays LPA Challenge with Plasma Histamine Evaluation.

T1 sequence (Q92633 whole entry): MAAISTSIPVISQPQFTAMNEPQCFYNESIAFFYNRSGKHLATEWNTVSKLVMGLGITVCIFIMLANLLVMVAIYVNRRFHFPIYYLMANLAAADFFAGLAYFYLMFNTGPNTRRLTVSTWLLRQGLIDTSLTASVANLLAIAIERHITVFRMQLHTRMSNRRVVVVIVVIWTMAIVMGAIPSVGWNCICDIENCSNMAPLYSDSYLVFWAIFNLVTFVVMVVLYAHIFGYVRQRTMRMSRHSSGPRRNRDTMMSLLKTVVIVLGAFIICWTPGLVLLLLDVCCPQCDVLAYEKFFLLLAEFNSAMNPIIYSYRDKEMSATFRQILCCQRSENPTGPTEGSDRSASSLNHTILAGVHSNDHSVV

IC50 | SMILES
159 nM | Cc1nc(-c2nnn(C)c2CNc2nccc(-c3ccccn3)n2)ccc1OC1CCC2C(C(=O)O)C12 (mixture of isomers) [Example 48, (±)-(2R)-2-((2-Methyl-6-(1-methyl-54(4-(pyridin-2-yl)pyrimidin-2-yl)amino)methyl)-1H-1,2,3-triazol-4-yl)pyridin-3-yl)oxy)bicyclo[3.1.0]hexane-6-carboxylic Acid]
27 nM | Cc1nc(-c2nnn(C)c2COC(=O)N(C)CC2CCC2)ccc1O[C@@H]1C[C@H]2C[C@H]2[C@H](C(=O)O)C1 (racemic) [Example 1, (±)-(1R,2R,4R,6R)-4-((6-(5-((((cyclobutylmethyl)(methyl)carbamoyl)oxy)methyl)-1-methyl-1H-1,2,3-triazol-4-yl)-2-methylpyridin-3-yl)oxy)bicyclo[4.1.0]heptane-2-carboxylic Acid]
26 nM | Cc1nc(-c2nnn(C)c2COC(=O)N(C)CC2CCC2)ccc1O[C@H]1C[C@H]2C[C@H]2[C@H](C(=O)O)C1 (racemic) [Example 2, (±)-(1R,2R,4S,6R)-4-((6-(5-((((cyclobutylmethyl)(methyl)carbamoyl)oxy)methyl)-1-methyl-1H-1,2,3-triazol-4-yl)-2-methylpyridin-3-yl)oxy) bicyclo[4.1.0]heptane-2-carboxylic Acid]
40 nM | Cc1nc(-c2nnn(C)c2COC(=O)N(C)CC2CCC2)ccc1O[C@H]1CC2C[C@H]2[C@@H](C(=O)O)C1 (mixture of isomers) [Example 7, (±)-(1R,2S,4S,6R)-4-((6-(5-((((cyclobutylmethyl)(methyl)carbamoyl)oxy)methyl)-1-methyl-1H-1,2,3-triazol-4-yl)-2-methylpyridin-3-yl)oxy)bicyclo[4.1.0]heptane-2-carboxylic Acid]
188 nM | Cc1nc(-c2nnn(C)c2COC(=O)N(C)CC2CCC2)ccc1O[C@@H]1CCC[C@@]2(C(=O)O)C[C@@H]12 (racemic) [Example 10, (±)-(1R,5R,6R)-5-((6-(5-((((cyclobutylmethyl)(methyl)carbamoyl)oxy)methyl)-1-methyl-1H-1,2,3-triazol-4-yl)-2-methylpyridin-3-yl)oxy)bicyclo[4.1.0]heptane-1-carboxylic Acid]
931 nM | CCCN(C)C(=O)OCc1c(-c2ccc(O[C@@H]3COC[C@@H](C(=O)O)C3)c(C)n2)nnn1C (racemic) [Example 17, (±)-trans-5-((2-methyl-6-(1-methyl-5-(((methyl(propyl)carbamoyl)oxy)methyl)-1H-1,2,3-triazol-4-yl)pyridin-3-yl)oxy)tetrahydro-2H-pyran-3-carboxylic Acid, TFA Salt]
157 nM | CCCCCOC(=O)Nc1c(-c2ccc(O[C@H]3COC[C@H](C(=O)O)C3)c(C)n2)nnn1C (racemic) [Example 23, (±)-trans-5-((2-methyl-6-(1-methyl-5-(((pentyloxy)carbonyl)amino)-1H-1,2,3-triazol-4-yl)pyridin-3-yl)oxy)tetrahydro-2H-pyran-3-carboxylic Acid, TFA Salt]
420 nM | Cc1nc(-c2nnn(C)c2Cn2nnc(CC3CCCC3)n2)ccc1O[C@@H]1COC[C@@H](C(=O)O)C1 (racemic) [Example 24, (±)-trans-5-((6-(5-((5-(cyclopentylmethyl)-2H-tetrazol-2-yl)methyl)-1-methyl-1H-1,2,3-triazol-4-yl)-2-methylpyridin-3-yl)oxy)tetrahydro-2H-pyran-3-Carboxylic Acid, TFA Salt]
225 nM | Cc1nc(-c2nnn(C)c2COC(=O)N(C)CC2CCCC2)ccc1OC1COCC(C(=O)O)C1 (racemic) [Example 28, (±)-trans-5-((6-(5-((((cyclopentylmethyl)(methyl)carbamoyl)oxy)methyl)-1-methyl-1H-1,2,3-triazol-4-yl)-2-methylpyridin-3-yl)oxy)tetrahydro-2H-pyran-3-carboxylic Acid, TFA Salt]
263 nM | Cc1nc(-c2nnn(C)c2CNc2noc(CCC3CCC3)n2)ccc1O[C@@H]1CCO[C@@H](C(=O)O)C1 (racemic) [Example 33, (±)-trans-4-((6-(5-(((5-(2-cyclobutylethyl)-1,2,4-oxadiazol-3-yl)amino)methyl)-1-methyl-1H-1,2,3-triazol-4-yl)-2-methylpyridin-3-yl)oxy)tetrahydro-2H-pyran-2-carboxylic Acid]
19 nM | Cc1nc(-c2nnn(C)c2COC(=O)N(C)CC2CCC2)ccc1OC1CC[C@H]2C(C(=O)O)[C@@H]12 (mixture of isomers) [Example 41, (±)-(1S,2R,5R)-2-((6-(5-((((cyclobutylmethyl)(methyl)carbamoyl)oxy)methyl)-1-methyl-1H-1,2,3-triazol-4-yl)-2-methylpyridin-3-yl)oxy)bicyclo[3.1.0]hexane-6-carboxylic Acid]
191 nM | Cc1nc(-c2nnn(C)c2CNC(=O)OCC2CCC2)ccc1O[C@@H]1CCC2C(C(=O)O)C21 (mixture of isomers) [Example 47, (±)-(2R)-2-((6-(5-((((cyclobutylmethoxy)carbonyl)amino)methyl)-1-methyl-1H-1,2,3-triazol-4-yl)-2-methylpyridin-3-yl)oxy)bicyclo[3.1.0]hexane-6-carboxylic Acid]
162 nM | Cc1nc(-c2nnn(C)c2COC(=O)N(C)CC2CCC2)ccc1O[C@@H]1CC[C@H]2[C@@H](C(=O)O)[C@H]21 (racemic) [Example 49, (±)-(1S,2R,5R,6R)-2-((6-(5-((((Cyclobutylmethyl)(methyl)carbamoyl)oxy)methyl)-1-methyl-1H-1,2,3-triazol-4-yl)-2-methylpyridin-3-yl)oxy)bicyclo[3.1.0]hexane-6-carboxylic Acid]
105 nM | Cc1nc(-c2nnn(C)c2CNc2nccc(OC3CC3)n2)ccc1OC1CC[C@H]2C(C(=O)O)[C@@H]12 (mixture of isomers) [Example 50, (±)-(1S,2R,5R,6R)-2-((6-(5-(((4-Cyclopropoxypyrimidin-2-yl)amino)methyl)-1-methyl-1H-1,2,3-triazol-4-yl)-2-methylpyridin-3-yl)oxy)bicyclo[3.1.0]hexane-6-carboxylic Acid]
724 nM | CCCN(C)C(=O)OCc1c(-c2ccc(O[C@@H]3CC[C@H]4C(C(=O)O)[C@@H]34)c(C)n2)nnn1C (mixture of isomers) [Example 51, (±)-(1S,2R,5R,6R)-2-((2-methyl-6-(1-methyl-5-(((methyl(propyl)carbamoyl)oxy)methyl)-1H-1,2,3-triazol-4-yl)pyridin-3-yl)oxy)bicyclo[3.1.0]hexane-6-carboxylic Acid]
1720 nM | Cc1nc(-c2nnn(C)c2NC(=O)OCC2CC2)ccc1O[C@@H]1CC[C@H]2C(C(=O)O)[C@@H]12 (mixture of isomers) [Example 52, (±)-(1S,2R,5R,6R)-2-((6-(5-(((cyclopropylmethoxy)carbonyl)amino)-1-methyl-1H-1,2,3-triazol-4-yl)-2-methylpyridin-3-yl)oxy)bicyclo[3.1.0]hexane-6-carboxylic Acid]
239 nM | CC(C)CN(C)C(=O)OCc1c(-c2ccc(O[C@@H]3CC[C@H]4C(C(=O)O)[C@@H]34)cn2)nnn1C (mixture of isomers) [Example 68, (±)-(1S,2R,5R,6R)-2-((6-(5-(((isobutyl(methyl)carbamoyl)oxy)methyl)-1-methyl-1H-1,2,3-triazol-4-yl)pyridin-3-yl)oxy)bicyclo[3.1.0]hexane-6-carboxylic Acid]
453 nM | CCCN(C)C(=O)OCc1c(-c2ccc(O[C@@H]3CC[C@H]4C(C(=O)O)[C@@H]34)cn2)nnn1C (mixture of isomers) [Example 69]
80 nM | CN(C(=O)OCc1c(-c2ccc(O[C@@H]3C[C@H](C(=O)O)C[C@@H]4C[C@@H]43)cn2)nnn1C)C1CCCC1 (racemic) [Example 72, (±)-(1 S,3R,5R,6S)-5-((6-(5-(((Cyclopentyl(methyl)carbamoyl)oxy)methyl)-1-methyl-1H-1,2,3-triazol-4-yl)pyridin-3-yl)oxy)bicyclo[4.1.0]heptane-3-carboxylic Acid]
60 nM | CN(C(=O)OCc1c(-c2ccc(OC3CCCC4C(C(=O)O)C34)cn2)nnn1C)C1CCCC1 (racemic) [Example 74, (±)-2-((6-(5-(((Cyclopentyl(methyl)carbamoyl)oxy)methyl)-1-methyl-1H-1,2,3-triazol-4-yl)pyridin-3-yl)oxy)bicyclo[4.1.0]heptane-7-carboxylic Acid]
16 nM | Cc1nc(-c2nnn(C)c2COC(=O)N(C)CC2CCC2)ccc1O[C@@H]1CC2C[C@H]2[C@H](C(=O)O)C1 (single isomer, unassigned) [Example 3]
907 nM | Cc1nc(-c2nnn(C)c2COC(=O)N(C)CC2CCC2)ccc1O[C@H]1C[C@@H]2C[C@@H]2[C@@H](C(=O)O)C1 (single isomer, unassigned) [Example 4]
28 nM | Cc1nc(-c2nnn(C)c2COC(=O)N(C)CC2CCC2)ccc1O[C@H]1CC2C[C@H]2[C@H](C(=O)O)C1 (single isomer, unassigned) [Example 5]
562 nM | Cc1nc(-c2nnn(C)c2COC(=O)N(C)CC2CCC2)ccc1O[C@@H]1C[C@@H]2C[C@@H]2[C@@H](C(=O)O)C1 (single isomer, unassigned) [Example 6]
26 nM | Cc1nc(-c2nnn(C)c2COC(=O)N(C)CC2CCC2)ccc1O[C@@H]1C[C@@H]2C[C@@H]2[C@H](C(=O)O)C1 (single isomer, unassigned) [Example 8]
